What was measured:
[1] = system: HIV-1; test: Anti HIV-1 activity (HIV-1 P24 antigen in cell cultures); format: cell-based; conditions: 4 days after addition of the reagents
Description: Test Procedure of Anti HIV-1 Activity
8 reagent solutions of different diluted concentrations and positive control solutions are added into cell cultures in 96 well plate respectively. The sample of each diluted solutions is made duplicately and a control cell sample is also is set up. 100 μl of cell sample at a concentration of 2×10^5cells/ml is inoculated into the wells containing reagent in the plate. The cells samples are cultured in a saturated humidity culture chamber (at a 5% CO2 atmosphere) at 37° C. The pathological changes of cells are observed daily.

[2] = system: HBV; test: Anti-HBV activity (HBV DNA in cell lysate, spot hybridization); format: cell-based; conditions: HBV DNA content of the cells, reagent solution changed every 4 days
Description: Test Procedure for Anti-HBV Activity
Using cell culture method, the preparation of the cells to be tested (100,000 cell's/mL) is inoculated into cell culture plate in 100 μl each well and the cells are cultured 24 h at 37° C. in 5% CO2. Tests are carried out when the cells grow into a monolayer. The target compounds as well as the controls are prepared into a series of solutions of appropriate concentrations using the culture medium and are added into 96 well culture plate respectively in 4 wells per one concentration. Then the reagent solution in each well is changed into the fresh reagent solution with the same concentration every 4 days. A cell control without reagent treatment is simultaneously is set up. The observation index is based upon the pathological changes of the cells by observing the degrees of the pathological changes of the cells under microscope every 8 days. […] Cell control without drug treatment is simultaneously is set up. The reagent solution or control medium in each well is changed into the fresh reagent solution or fresh medium respectively every 4 days. After cytolysis of the cells, HBV DNA is extracted from the cell lysis solution according to the molecular cloning technical procedure. The spots of different samples are hybridized and the A values of different hybridized spots are measured using autoradiograghic technique. The HBV DNA contents in the cell control as well as in the drug treated samples are calculated using the regression equations obtained from the standard curves to obtain half effective concentration values, the results are shown in Table 1.

Row | Compound | Activity of HIV inhibition IC50 [1] | Activity of HBV inhibition IC50 [2]
1 | COC1C=CC=C(C)C(=O)NC2=CC(=O)C(NCCNCCO)=C(CC(C)CC(OC)C(O)C(C)C=C(C)C1OC(N)=O)C2=O (stereo not drawn) [GM-W26] | 0.21 µg/mL | 0.64 µg/mL
2 | COC1C=CC=C(C)C(=O)NC2=CC(=O)C(NN3CCOCC3)=C(CC(C)CC(OC)C(O)C(C)C=C(C)C1OC(N)=O)C2=O (stereo not drawn) [GM-W68] | 10.46 µg/mL | 4.6 µg/mL
3 | COC1C=CC=C(C)C(=O)NC2=CC(=O)C(NC3CCN(Cc4ccccc4)CC3)=C(CC(C)CC(OC)C(O)C(C)C=C(C)C1OC(N)=O)C2=O (stereo not drawn) [GM-ABPD, 17-(4′-benzyl-4′-azacyclohexylamino)-17-demethoxy geldanamycin] | <0.03 µg/mL | 0.32 µg/mL
4 | COC1C=CC=C(C)C(=O)NC2=CC(=O)C(NCCOS(=O)(=O)O)=C(CC(C)CC(OC)C(O)C(C)C=C(C)C1OC(N)=O)C2=O (stereo not drawn) [GM-W17] | 23.47 µg/mL | 10.3 µg/mL
5 | COC1C=CC=C(C)C(=O)NC2=CC(=O)C(NCCCN(C)c3ccccc3)=C(CC(C)CC(OC)C(O)C(C)C=C(C)C1OC(N)=O)C2=O (stereo not drawn) [GM-W45] | <1.67 µg/mL | 0.32 µg/mL
6 | COC1C=CC=C(C)C(=O)NC2=CC(=O)C(NCCc3ccc(N)cc3)=C(CC(C)CC(OC)C(O)C(C)C=C(C)C1OC(N)=O)C2=O (stereo not drawn) [GM-W10] | 40.71 µg/mL | 6.4 µg/mL
7 | CCOC(=O)N1CCC(NC2=C3CC(C)CC(OC)C(O)C(C)C=C(C)C(OC(N)=O)C(OC)C=CC=C(C)C(=O)NC(=CC2=O)C3=O)CC1 (stereo not drawn) [GM-W80] | 0.97 µg/mL | 1.1 µg/mL
8 | COC1C=CC=C(C)C(=O)NC2=CC(=O)C(NCC(O)c3ccccc3)=C(CC(C)CC(OC)C(O)C(C)C=C(C)C1OC(N)=O)C2=O (stereo not drawn) [GM-W36] | 0.29 µg/mL | 0.02 µg/mL
9 | COC1C=CC=C(C)C(=O)NC2=CC(=O)C(NCC3CCC4CC3C4(C)C)=C(CC(C)CC(OC)C(O)C(C)C=C(C)C1OC(N)=O)C2=O (stereo not drawn) [GM-MTA, 17-(myrtanylamino)-17-demethoxy geldanamycin] | 0.04 µg/mL | 0.32 µg/mL
10 | COC1C=CC=C(C)C(=O)NC2=CC(=O)C(NCC3CCCNC3)=C(CC(C)CC(OC)C(O)C(C)C=C(C)C1OC(N)=O)C2=O (stereo not drawn) [GM-W23] | 0.46 µg/mL | 0.32 µg/mL
11 | COC1C=CC=C(C)C(=O)NC2=CC(=O)C(NCCCN3CCCC3)=C(CC(C)CC(OC)C(O)C(C)C=C(C)C1OC(N)=O)C2=O (stereo not drawn) [GM-W76] | 0.24 µg/mL | 0.01 µg/mL
12 | COC1C=CC=C(C)C(=O)NC2=CC(=O)C(NCC(O)CO)=C(CC(C)CC(OC)C(O)C(C)C=C(C)C1OC(N)=O)C2=O (stereo not drawn) [GM-W74] | 0.47 µg/mL | 8.9 µg/mL
13 | COC1C=CC=C(C)C(=O)NC2=CC(=O)C(NCC(=N)N)=C(CC(C)CC(OC)C(O)C(C)C=C(C)C1OC(N)=O)C2=O (stereo not drawn) [GM-W24] | 0.11 µg/mL | 0.01 µg/mL
14 | CO[C@H]1/C=C/C=C(\C)C(=O)NC2=C(NC[C@H]3CCCO3)C(=O)C(NC[C@H]3CCCO3)=C(C[C@H](C)C[C@H](OC)[C@H](O)[C@@H](C)/C=C(\C)[C@H]1OC(N)=O)C2=O [THFM-II, 17,19-di-(R)-tetrahydrofurfuryl amino-17-demethoxy geldanamycin] | >22.2 µg/mL | 0.013 µg/mL
15 | COC1C=CC=C(C)C(=O)NC2=CC(=O)C(NCCS(=O)(=O)O)=C(CC(C)CC(OC)C(O)C(C)C=C(C)C1OC(N)=O)C2=O (stereo not drawn) [GM-W5] | 10.26 µg/mL | 6.4 µg/mL
16 | COC1C=CC=C(C)C(=O)NC2=CC(=O)C(NCc3cc(O)co3)=C(CC(C)CC(OC)C(O)C(C)C=C(C)C1OC(N)=O)C2=O (stereo not drawn) [GM-W53] | 0.37 µg/mL | 0.46 µg/mL
17 | COC1C=CC=C(C)C(=O)NC2=CC(=O)C(NNC(=O)c3ccco3)=C(CC(C)CC(OC)C(O)C(C)C=C(C)C1OC(N)=O)C2=O (stereo not drawn) [GM-W4] | 0.33 µg/mL | 3.2 µg/mL
18 | CCCCCC(NC1=C2CC(C)CC(OC)C(O)C(C)C=C(C)C(OC(N)=O)C(OC)C=CC=C(C)C(=O)NC(=CC1=O)C2=O)P(=O)(O)O (stereo not drawn) [GM-W62] | 1.76 µg/mL | 0.89 µg/mL
19 | COC1C=CC=C(C)C(=O)NC2=CC(=O)C(NN3CCCCC3)=C(CC(C)CC(OC)C(O)C(C)C=C(C)C1OC(N)=O)C2=O (stereo not drawn) [GM-W72] | 6.45 µg/mL | 3.2 µg/mL
20 | COC1C=CC=C(C)C(=O)NC2=CC(=O)C(NCCc3c[nH]c4ccccc34)=C(CC(C)CC(OC)C(O)C(C)C=C(C)C1OC(N)=O)C2=O (stereo not drawn) [GM-W90] | 1.23 µg/mL | 0.93 µg/mL
21 | COC1C=CC=C(C)C(=O)NC2=CC(=O)C(NCCCC(=O)OCC=C(C)CCC=C(C)CCC=C(C)C)=C(CC(C)CC(OC)C(O)C(C)C=C(C)C1OC(N)=O)C2=O (stereo not drawn) [GM-W85] | 0.78 µg/mL | 0.01 µg/mL
22 | COC1C=CC=C(C)C(=O)NC2=C(NCC3CCCO3)C(=O)C(NCC3CCCO3)=C(CC(C)CC(OC)C(O)C(C)C=C(C)C1OC(N)=O)C2=O (stereo not drawn) [THFM-GM2] | 0.24 µg/mL | 0.064 µg/mL
23 | COC1C=CC=C(C)C(=O)NC2=CC(=O)C(NCCCN3CCOCC3)=C(CC(C)CC(OC)C(O)C(C)C=C(C)C1OC(N)=O)C2=O (stereo not drawn) [GM-W46] | 1.32 µg/mL | 1.49 µg/mL
24 | COC1C=CC=C(C)C(=O)NC2=CC(=O)C(Nc3cnc(C)c(C)n3)=C(CC(C)CC(OC)C(O)C(C)C=C(C)C1OC(N)=O)C2=O (stereo not drawn) [GM-W57] | 13.76 µg/mL | 8.0 µg/mL
25 | COC1C=CC=C(C)C(=O)NC2=CC(=O)C(NCCCn3ccnc3)=C(CC(C)CC(OC)C(O)C(C)C=C(C)C1OC(N)=O)C2=O (stereo not drawn) [GM-129, 17-(3′-(1″-imidazolyl)propylamino)-17-demethoxy geldanamycin] | 1.92 µg/mL | 0.32 µg/mL
26 | 17-(trans-4′-hydroxyl cyclohexylamino)-17-demethoxy geldanamycin [GM-223] | 0.10 µg/mL | –
27 | CO[C@H]1/C=C/C=C(\C)C(=O)NC2=CC(=O)C(NCCc3ccc(S(N)(=O)=O)cc3)=C(C[C@H](C)C[C@H](OC)[C@H](O)[C@@H](C)/C=C(\C)[C@H]1OC(N)=O)C2=O [GM-208, 17-(4″-aminosulfonyl)phenylethylamino-17-demethoxy geldanamycin] | >0.82 µg/mL | –
28 | COC1C=CC=C(C)C(=O)NC2=CC(=O)C(NCc3ccc4c(c3)OCO4)=C(CC(C)CC(OC)C(O)C(C)C=C(C)C1OC(N)=O)C2=O (stereo not drawn) [GM-217, 17-(3′,4′-(Methylenedioxy)benzylamino)-17-demethoxygeldanamycin] | 0.16 µg/mL | –
29 | CO[C@H]1/C=C/C=C(\C)C(=O)NC2=CC(=O)C(NCCc3cccs3)=C(C[C@H](C)C[C@H](OC)[C@H](O)[C@@H](C)/C=C(\C)[C@H]1OC(N)=O)C2=O [GM-221, 17-(2′-thienylethylamino)-17-demethoxy geldanamycin] | 0.06 µg/mL | –

— US20100311694A1, “Set of Geldanamycin Derivatives and Their Preparation Methods” (Institute of Medicinal Biotechnology, Chinese Academy of …, priority 2008, published 2010)
